Source: article PMC11528066, “Noninvasive Monitoring of Programmed Death-Ligand 2 Expression with Positron Emission Tomography using ^68Ga-labeled Peptide Antagonist in Preclinical and Exploratory Human Studies” (Research, 2024)
Peptide text beside a SMILES is read from it. * marks the point of attachment. NOTA = O=C(O)CN1CCN(CC(=O)O)CCN(CC(=O)*)CC1; AEEEA = NCCOCCOCCOCC(=O)O

Legend:
A549-PD-L2 cell lines = assay: Cell uptake assay; type: cell-based; settings: A549-PD-L2 cells, n = 5; for cell uptake rate: mean ± SD
Procedure: Cell uptake assays were conducted to measure the uptake of [^68Ga]Ga-HN11-1 and [^68Ga]Ga-HN11-2 in A549 and A459-PD-L2 cell lines following incubation periods of 15, 30, 60, and 90 min. Blocking studies were performed by coincubating cells with an excess of precursor (HN11-1 / HN11-2), and then the cell uptakes of [^68Ga]Ga-HN11-1 and [^68Ga]Ga-HN11-2 were performed in A459-PD-L2 cell lines after 60 min of incubation. The experiment details are provided in the SI.
All tumor cells (1 × 10^6 per well) were seeded in two 24 - well plates, incubated for 24 h and then added with […] of [^68Ga]Ga-HN11-1 or [^68Ga]Ga-HN11-2 per well. After 15, 30, 60 and 90 min of uptake, the cells were separated from the medium, washed with 500 μL of cold PBS for three times and dissolved with 1 M NaOH. At different time points, these cells were collected and counted by using a γ-counter (WIZARD 2480, Pekin Elmer). For in vitro blocking experiments, cells were co-incubated with 10 μg of cold HN11-1 or HN11-2 precursor. After incubation, the cells were washed, collected and measured with a γ-counter, either. The IC50 values of [^68Ga]Ga-HN11-1 or [^68Ga]Ga-HN11-2 were determined using GraphPad Prism 8.0.2 software, respectively.

[1] = Partition coefficient (log P), 1-octanol/PBS; type: physicochemical; settings: shake-flask 3 mL 1-octanol / 3 mL PBS pH 7.4, vortex 10 min, centrifugation 10,000 rpm 10 min, γ-counter, mean ± SD, n = 5
Procedure: The partition coefficients were assessed using the method described previously. [^68Ga]Ga-HN11-1 and [^68Ga]Ga-HN11-2 was respectively introduced into a mixture comprising 3 mL of 1-octanol and 3 mL of phosphate-buffered saline (PBS) with a pH of 7.4. Following vortexing for 10 minutes and subsequent centrifugation at 10,000 rpm for 10 minutes, samples were taken from both layers and counted using a γ-counter. The log P was determined using the formula: log P = log([M]oct/[M]aq). All measurements were conducted using 5 independent samples and are presented as mean ± standard deviation (SD).

PD-L2 = target: T1, PD-L2 (Homo sapiens, UniProt Q9BQ51); assay: [^68Ga]Ga-HN11-1 PET/CT imaging in cancer patients; type: in vivo
T1 construct: from tissue; host or cells: tumour lesions (NSCLC, recurrent or metastatic HNSCC) in living patients
T1 sequence (Q9BQ51 20-273): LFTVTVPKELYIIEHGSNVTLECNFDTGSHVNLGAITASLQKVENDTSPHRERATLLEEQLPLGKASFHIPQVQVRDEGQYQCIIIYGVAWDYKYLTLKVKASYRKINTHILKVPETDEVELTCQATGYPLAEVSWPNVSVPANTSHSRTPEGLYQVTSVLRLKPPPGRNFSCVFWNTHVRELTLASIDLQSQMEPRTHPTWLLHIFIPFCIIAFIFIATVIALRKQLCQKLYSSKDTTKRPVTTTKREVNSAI
Procedure: The program content was explained to all healthy volunteers and cancer patients, and written informed consent was obtained. Whole-body dynamic imaging was conducted for 60 min using a PET/CT 690 Elite scanner (GE Discovery) immediately after intravenous injection of [^68Ga]Ga-HN11-1 (3.1 to 4.9 MBq/kg). A static body scan was performed 15 to 45 min after injection. All cancer patients underwent [^18F]F-FDG and [^68Ga]Ga-HN11-1 PET/CT imaging within 5 d. Two nuclear medicine physicians reconstructed and reviewed the images on GE aw 4.6 workstations and reached a consensus. They delineated the ROIs and measured the values of maximum standard uptake and average standard uptake (SUVmax and SUVmean). The biological distribution of [^68Ga]Ga-HN11-1 in healthy volunteers was determined by SUVmax and SUVmean. The OLINDA/EXM software (version 1.0, Hermes Medical Solutions AB) was used to estimate the human radiation dose based on the SUVmean of each organ.

[2] = tested on: A549-PD-L2 tumor xenograft models; assay: Dynamic micro-PET imaging in A549-PD-L2 xenografts; type: in vivo, BALB/C nude mice; settings: n = 3
Procedure: Micro-PET imaging was conducted using an Inveon PET scanner (Siemens, Germany). Dynamic PET examine were acquired over the first 60 min following the simultaneous injection of 7.4 to 9.25 MBq (200 to 250 μCi) of [^68Ga]Ga-HN11-1 and [^68Ga]Ga-HN11-2. After reconstructing the images and delineating the regions of interest (ROIs), time-radioactivity curves were plotted to obtain the Tumor/Muscle (T/M) ratios. %ID/g represents the percentage of the injected dose of the radiotracer that accumulates in a specific tissue per gram of tissue weight. For the biodistribution study, the xenograft models received an intravenous injection of 3.7 to 5.5 MBq (100 to 150 μCi) of [^68Ga]Ga-HN11-1. After the designated period (10, 30, 60, and 90 min), the mice were euthanized, and important tissues and organs were dissected and collected. The samples were counted using the γ-counter for determining the %ID/g, presented as mean ± standard deviation (SD).
A549 cell lines were provided by the China Center for Type Culture Collection (CCTCC) and cultured in RPMI-1640 medium supplemented with 10 % fetal bovine serum and 100 U/mL penicillin-streptomycin. The lentivirus system was implemented to introduce PD-L2 (PDCD1LG2) over-expressed cDNA into the A549 cells. The viral vectors were produced in 293T cells and co-transfected with the psAX2, pMD2G and PD-L2 plasmids. A549 cells transduced with the vectors were selectively grown in 1.6 μg/mL puromycin. Transfection efficiency was identified by WB and real-time quantitative PCR. All the cells were cultured in an incubator at 37° C with 5 % CO2 atmosphere. A549 and A549-PD-L2 cells (5 × 10^6, 200 μL)were subcutaneously implanted into the right shoulder of BALB/C nude mice (male, 4-6 weeks), respectively. When the tumors reached to 5 - 8 mm in diameter, the mice were subjected to in vivo and ex vivo studies. All the mice were purchased from the Laboratory Animal Center of Central South University.

[3] = In vitro stability in serum (radio-HPLC); type: in vitro ADME; settings: room temperature, over 4 h (0.5, 1, 2, 4 h), 3.74 MBq, read-out: in vitro stability in serum (radiochemical purity)
Procedure: The in vitro stability of [^68Ga]Ga-HN11-1 and [^68Ga]Ga-HN11-2 (3.74 MBq) in saline and serum was tested by radio-HPLC analysis of its radiochemical purity after incubation at room temperature for 0.5 , 1 , 2 and 4 h.

SMILES: CC[C@H](C)[C@H](NC(=O)[C@H](CCCNC(=N)N)NC(=O)CNC(=O)[C@H](CCC(=O)O)NC(=O)[C@H](CC(N)=O)NC(=O)[C@H](Cc1ccc(O)cc1)NC(=O)[C@H](CCCNC(=N)N)NC(=O)[C@H](Cc1ccc(O)cc1)NC(=O)[C@H](Cc1c[nH]cn1)NC(=O)COCCOCCOCCNC(=O)CN1CCN(CC(=O)O)CCN(CC(=O)O)CC1)C(=O)N[C@@H](CCCNC(=N)N)C(=O)N[C@@H](CC(N)=O)C(=O)O [[^68Ga]Ga-HN11-1, metal not drawn] ({NOTA-AEEEA}-HYRYNEGRIRN-OH)
- cell uptake rate (A549-PD-L2 cell lines; 30 min incubation, γ-counter): 4.51 ± 0.04%
- cell uptake, block group (A549-PD-L2 cell lines; 60 min, with excess (10 μg) of cold HN11-1 / HN11-2 precursor): 1.43 ± 0.13%
- cell uptake rate (A549-PD-L2 cell lines; 60 min incubation): 4.87 ± 0.28%
- logD [1]: -0.3 ± 0.0017
- median SUVmax (PD-L2; all patients, n = 6): 3.25
- HN11-1 SUVmax (PD-L2; patient 1, NSCLC, lung, PD-L2 expression 80 %): 4.1
- HN11-1 SUVmax (PD-L2; patient 2, NSCLC, lung, PD-L2 expression 15 %): 2.1
- HN11-1 SUVmax (PD-L2; patient 3, rHNSCC, buccal): 4.0
- HN11-1 SUVmax (PD-L2; patient 4, rHNSCC, buccal): 3.0
- tumor uptake ([2]; 10 min after injection): 2.61 ± 0.16 %ID/g
- tumor uptake ([2]; 20 min after injection): 2.97 ± 0.18 %ID/g
- tumor uptake ([2]; 30 min after injection): 3.36 ± 0.29 %ID/g
- tumor uptake ([2]; 40 min after injection): 3.22 ± 0.23 %ID/g
- tumor uptake ([2]; 50 min after injection): 3.06 ± 0.36 %ID/g
- tumor uptake ([2]; 60 min after injection): 2.76 ± 0.42 %ID/g
- remaining at 4 h [3]: > 95%
